# Experimental data taken from patent US9833497B2, “Human originated EGF domain proteins and use of the same” (CHENGDU SOURCEBIO LIMITED-LIABILITY COMPANY, priority 2013, dated 2017).
# Assays:
# Assay type in all cases: cell-based
# [1] = system: E. coli DH5α; experiment: Antibacterial activity: MIC and growth curve against E. coli DH5α in 96-well plate; details: minimal inhibitory concentration against E. coli DH5α; 96-well plate, 5×10^5 CFU/mL, 37° C., judged after 8 h
# Summary of the method: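 MIC taken as lowest protein level with no bacterial growth, tracked by A600 every 30 min during 37 °C, 175 rpm culture. Two-fold protein series 50-12.5 μg/mL final, triplicate wells, against 5×10^5 CFU/mL of LB-washed mid-log cells.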
# [2] = system: E. coli BL21; experiment: MIC against Gram-negative bacteria: E. coli BL21; details: for MIC / MIC (μg/mL) E. coli BL21: E. coli BL21; for MIC (μg/mL) E. coli BL21 / MIC against E. coli BL21: 5×10^5 CFU/mL
# Summary of the method: (§1)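 MIC = lowest concentration of recombinant protein showing no growth. Test proteins: purified human-derived EGF domain proteins, two-fold dilution series, three wells per concentration; inoculum 5×10^5 CFU/mL in LB; incubation 37° C with shaking at 175 rpm.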
# [3] = system: Pseudomonas aeruginosa; experiment: MIC against Gram-negative bacteria: Pseudomonas aeruginosa; details: for MIC (μg/mL) P. aeruginosa / MIC against P. aeruginosa: 5×10^5 CFU/mL
# Summary of the method: as §1
# [4] = system: Klebsiella pneumonia; experiment: MIC against Gram-negative bacteria: Klebsiella pneumonia; details: for MIC (μg/mL) K. pneumonia / MIC against K. pneumonia: 5×10^5 CFU/mL
# Summary of the method: as §1
# [5] = system: Enterobacter cloacae; experiment: MIC against Gram-negative bacteria: Enterobacter cloacae; details: for MIC (μg/mL) E. cloacae / MIC against E. cloacae: 5×10^5 CFU/mL
# Summary of the method: as §1
# [6] = system: Aeromonas hydrophila; experiment: MIC against Gram-negative bacteria: Aeromonas hydrophila; details: for MIC (μg/mL) A. hydrophila / MIC against A. hydrophila: 5×10^5 CFU/mL
# Summary of the method: as §1
# [7] = system: Citrobacter diversus; experiment: MIC against Gram-negative bacteria: Citrobacter diversus; details: for MIC (μg/mL) C. diversus / MIC against C. diversus: 5×10^5 CFU/mL
# Summary of the method: as §1
# [8] = system: Moraxella catarrhalis; experiment: MIC against Gram-negative bacteria: Moraxella catarrhalis; details: for MIC (μg/mL) M. catarrhalis / MIC against M. catarrhalis: 5×10^5 CFU/mL
# Summary of the method: as §1
# [9] = system: Proteus mirabilis; experiment: MIC against Gram-negative bacteria: Proteus mirabilis; details: for MIC (μg/mL) P. mirabilis / MIC against P. mirabilis: 5×10^5 CFU/mL
# Summary of the method: as §1
# [10] = system: Proteus vulgaris; experiment: MIC against Gram-negative bacteria: Proteus vulgaris; details: for MIC (μg/mL) P. vulgaris / MIC against P. vulgaris: 5×10^5 CFU/mL
# Summary of the method: as §1
# [11] = system: Serratia marcescens; experiment: MIC against Gram-negative bacteria: Serratia marcescens; details: for MIC (μg/mL) S. marcescens / MIC against S. marcescens: 5×10^5 CFU/mL
# Summary of the method: as §1
# [12] = P. aeruginosa, 10 h cultivation at 37° C.
# [13] = K. pneumonia, 10 h cultivation at 37° C.
# [14] = E. cloacae, 10 h cultivation at 37° C.
# [15] = A. hydrophila, 10 h cultivation at 37° C.
# [16] = C. diversus, 10 h cultivation at 37° C.
# [17] = M. catarrhalis, 10 h cultivation at 37° C.
# [18] = P. mirabilis, 10 h cultivation at 37° C.
# [19] = P. vulgaris, 10 h cultivation at 37° C.
# [20] = S. marcescens, 10 h cultivation at 37° C.
substance,measurement,setting,value
PRT1024 (DVDECQPSRCHPDAFCYNTPGSFTCQCKPGYQGDGFRCV; listed as Homo sapiens),MIC,[1],50 µg/mL
same,MIC,[2]; 10 h cultivation at 37° C.,12.5 µg/mL
same,MIC,[3]; [12],50 µg/mL
same,MIC,[4]; [13],25 µg/mL
same,MIC,[5]; [14],12.5 µg/mL
same,MIC,[6]; [15],25 µg/mL
same,MIC,[7]; [16],50 µg/mL
same,MIC,[8]; [17],25 µg/mL
same,MIC,[9]; [18],12.5 µg/mL
same,MIC,[10]; [19],50 µg/mL
same,MIC,[11]; [20],12.5 µg/mL
PRT82 (CDCYPTGSLSRVCDPEDGQCPCKPGVIGRQCDRCDNPFAEVTTNGCEV; listed as Homo sapiens),MIC,[1],25 µg/mL
same,MIC (μg/mL) E. coli BL21,"[2]; 96-well plate, 37° C., 10 h",12.5 µg/mL
same,MIC (μg/mL) P. aeruginosa,"[3]; Pseudomonas aeruginosa, 96-well plate, 37° C., 10 h",25 µg/mL
same,MIC (μg/mL) K. pneumonia,"[4]; Klebsiella pneumonia, 96-well plate, 37° C., 10 h",50 µg/mL
same,MIC (μg/mL) E. cloacae,"[5]; Enterobacter cloacae, 96-well plate, 37° C., 10 h",25 µg/mL
same,MIC (μg/mL) A. hydrophila,"[6]; Aeromonas hydrophila, 96-well plate, 37° C., 10 h",12.5 µg/mL
same,MIC (μg/mL) C. diversus,"[7]; Citrobacter diversus, 96-well plate, 37° C., 10 h",50 µg/mL
same,MIC (μg/mL) M. catarrhalis,"[8]; Moraxella catarrhalis, 96-well plate, 37° C., 10 h",100 µg/mL
same,MIC (μg/mL) P. mirabilis,"[9]; Proteus mirabilis, 96-well plate, 37° C., 10 h",12.5 µg/mL
same,MIC (μg/mL) P. vulgaris,"[10]; Proteus vulgaris, 96-well plate, 37° C., 10 h",12.5 µg/mL
same,MIC (μg/mL) S. marcescens,"[11]; Serratia marcescens, 96-well plate, 37° C., 10 h",12.5 µg/mL
PRT250 (DVDECRTSITLCSHHCFNTAGSFTCGCPHDLVLGVDGRTCM; listed as Homo sapiens),MIC,[1],12.5 µg/mL
same,MIC (μg/mL) E. coli BL21,[2]; 10 h cultivation at 37° C.,12.5 µg/mL
same,MIC (μg/mL) P. aeruginosa,[3]; [12],12.5 µg/mL
same,MIC (μg/mL) K. pneumonia,[4]; [13],12.5 µg/mL
same,MIC (μg/mL) E. cloacae,[5]; [14],12.5 µg/mL
same,MIC (μg/mL) A. hydrophila,[6]; [15],25 µg/mL
same,MIC (μg/mL) C. diversus,[7]; [16],12.5 µg/mL
same,MIC (μg/mL) M. catarrhalis,[8]; [17],25 µg/mL
same,MIC (μg/mL) P. mirabilis,[9]; [18],12.5 µg/mL
same,MIC (μg/mL) P. vulgaris,[10]; [19],25 µg/mL
same,MIC (μg/mL) S. marcescens,[11]; [20],12.5 µg/mL
PRT476 (VVPVCRPNPCQNGATCSRHKRRSKFTCACPDQFKGKFCE; listed as Homo sapiens),MIC,[1],12.5 µg/mL
same,MIC against E. coli BL21,"[2]; 96-well plate, 37° C., 10 h",12.5 µg/mL
same,MIC against P. aeruginosa,"[3]; 96-well plate, 37° C., 10 h",50 µg/mL
same,MIC against K. pneumonia,"[4]; 96-well plate, 37° C., 10 h",12.5 µg/mL
same,MIC against E. cloacae,"[5]; 96-well plate, 37° C., 10 h",50 µg/mL
same,MIC against A. hydrophila,"[6]; 96-well plate, 37° C., 10 h",12.5 µg/mL
same,MIC against C. diversus,"[7]; 96-well plate, 37° C., 10 h",50 µg/mL
same,MIC against M. catarrhalis,"[8]; 96-well plate, 37° C., 10 h",25 µg/mL
same,MIC against P. mirabilis,"[9]; 96-well plate, 37° C., 10 h",25 µg/mL
same,MIC against P. vulgaris,"[10]; 96-well plate, 37° C., 10 h",12.5 µg/mL
same,MIC against S. marcescens,"[11]; 96-well plate, 37° C., 10 h",50 µg/mL
PRT538 (CPCPLPHLANFAESCYRKNGAVRCICNENYAGPNCERCAPGYYGNPLLIGSTCKK; listed as Homo sapiens),MIC,[1],25 µg/mL
same,MIC against E. coli BL21,"[2]; 96-well plate, 37° C., 10 h",12.5 µg/mL
same,MIC against P. aeruginosa,"[3]; 96-well plate, 37° C., 10 h",25 µg/mL
same,MIC against K. pneumonia,"[4]; 96-well plate, 37° C., 10 h",12.5 µg/mL
same,MIC against E. cloacae,"[5]; 96-well plate, 37° C., 10 h",25 µg/mL
same,MIC against A. hydrophila,"[6]; 96-well plate, 37° C., 10 h",12.5 µg/mL
same,MIC against C. diversus,"[7]; 96-well plate, 37° C., 10 h",25 µg/mL
same,MIC against M. catarrhalis,"[8]; 96-well plate, 37° C., 10 h",12.5 µg/mL
same,MIC against P. mirabilis,"[9]; 96-well plate, 37° C., 10 h",12.5 µg/mL
same,MIC against P. vulgaris,"[10]; 96-well plate, 37° C., 10 h",12.5 µg/mL
same,MIC against S. marcescens,"[11]; 96-well plate, 37° C., 10 h",50 µg/mL
PRT924 (DVDECAMANSNPCEHAGKCVNTDGAFHCECLKGYAGPRCE; listed as Homo sapiens),MIC,[1],12.5 µg/mL
same,MIC,[2]; 10 h cultivation at 37° C.,25 µg/mL
same,MIC,[3]; [12],50 µg/mL
same,MIC,[4]; [13],12.5 µg/mL
same,MIC,[5]; [14],25 µg/mL
same,MIC,[6]; [15],50 µg/mL
same,MIC,[7]; [16],12.5 µg/mL
same,MIC,[8]; [17],50 µg/mL
same,MIC,[9]; [18],25 µg/mL
same,MIC,[10]; [19],12.5 µg/mL
same,MIC,[11]; [20],50 µg/mL
PRT1002 (FPDPCQNAQLCQNGGSCQALLPAPLGLPSSPSPLTPSFLCTCLPGFTGERCQ; listed as Homo sapiens),MIC,[1],25 µg/mL
same,MIC,[2]; 10 h cultivation at 37° C.,12.5 µg/mL
same,MIC,[3]; [12],25 µg/mL
same,MIC,[4]; [13],50 µg/mL
same,MIC,[5]; [14],12.5 µg/mL
same,MIC,[6]; [15],50 µg/mL
same,MIC,[7]; [16],25 µg/mL
same,MIC,[8]; [17],12.5 µg/mL
same,MIC,[9]; [18],25 µg/mL
same,MIC,[10]; [19],50 µg/mL
same,MIC,[11]; [20],12.5 µg/mL
